Reference: patent US8435756B2, “Anionic acid-labile surfactants and methods of use” (Protea Biosciences, Inc., priority 2008, dated 2013)

Experiments:
[1] = molecular target: T1, ovalbumin (Gallus gallus, UniProt P01012); assay: Protein score from in-solution tryptic digestion of ovalbumin (MALDI-TOF MS/MS, Mascot); settings: tryptic digestion of 250 μmol ovalbumin; 0.05% AALS-6, other surfactants per manufacturer's protocols; FIG. 3
T1 sequence (P01012 1-386): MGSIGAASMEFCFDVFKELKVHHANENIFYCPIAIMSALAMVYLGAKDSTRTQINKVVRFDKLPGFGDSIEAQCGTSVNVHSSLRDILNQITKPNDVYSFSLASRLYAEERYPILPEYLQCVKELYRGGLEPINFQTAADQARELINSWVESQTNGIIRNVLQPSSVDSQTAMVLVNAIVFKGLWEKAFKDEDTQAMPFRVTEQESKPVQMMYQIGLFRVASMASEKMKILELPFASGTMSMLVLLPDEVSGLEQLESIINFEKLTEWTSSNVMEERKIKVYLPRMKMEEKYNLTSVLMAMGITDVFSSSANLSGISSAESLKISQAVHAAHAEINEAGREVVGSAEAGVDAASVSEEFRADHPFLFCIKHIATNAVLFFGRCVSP
Method: The protein scores from in-solution digestion of ovalbumin in buffers containing an embodiment of an anionic acid-labile surfactant (“AALS-6”) and three commercially available acid labile surfactants are illustrated in FIG. 3. A tryptic digestion of […] ovalbumin was performed using 0.05% AALS-6 in digestion buffer. For the other surfactants, digestion was performed according to the manufacturer's protocols. Sample clean-up and MALDI spotting was performed using C18 reversed phase tips. MALDI-TOF MS and MS/MS spectra were acquired using an ABI 4800 mass spectrometer in the reflector mode. Protein identification was accomplished through database searching MS/MS spectra using Mascot search engine.
The ovalbumin control digestion score is 347. In general, the higher protein score indicates an increase in the quality and/or completeness of the digestion because more peptides are available for analysis by the mass spectrometer, and/or the quality of the digested sample delivered to the mass spectrometer is increased. […] The higher protein score of AALS-6 may also be due to its degradation kinetics. For example, once the digestion experiment is complete, the degradation of the surfactant reduces contamination of the signal by detergent molecules and by-products as well as reduces the ion suppression effects commonly seen in mass spectrometry analysis of peptides and proteins.

[2] = molecular target: BSA (Bos taurus, UniProt P02769); assay: Protein score from in-solution tryptic digestion of BSA (MALDI-TOF, peptide mass fingerprinting); settings: tryptic digestion of 250 pmol BSA, 0.05% AALS-6 in digestion buffer; FIG. 2
BSA, sequence (P02769 25-607): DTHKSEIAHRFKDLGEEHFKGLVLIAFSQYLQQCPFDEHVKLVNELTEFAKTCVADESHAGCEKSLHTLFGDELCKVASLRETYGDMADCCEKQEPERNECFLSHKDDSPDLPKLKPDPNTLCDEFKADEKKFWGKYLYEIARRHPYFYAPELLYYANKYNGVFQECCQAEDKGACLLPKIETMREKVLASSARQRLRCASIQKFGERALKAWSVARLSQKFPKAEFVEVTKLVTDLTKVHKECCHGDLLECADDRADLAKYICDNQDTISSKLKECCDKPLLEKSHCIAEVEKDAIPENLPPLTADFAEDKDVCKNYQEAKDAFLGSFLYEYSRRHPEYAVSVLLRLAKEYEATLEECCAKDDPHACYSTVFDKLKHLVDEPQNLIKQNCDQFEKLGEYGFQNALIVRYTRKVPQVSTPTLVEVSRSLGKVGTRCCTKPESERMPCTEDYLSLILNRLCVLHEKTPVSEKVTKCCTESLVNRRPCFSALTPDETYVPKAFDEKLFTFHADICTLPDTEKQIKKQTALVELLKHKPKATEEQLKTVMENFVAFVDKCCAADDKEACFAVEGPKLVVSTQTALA
Method: Protein scores from in-solution digestion of BSA in buffers containing an embodiment of an anionic acid-labile surfactant (“AALS-6”) and three commercially available acid labile surfactants are illustrated in FIG. 2. A tryptic digestion of 250 pmol BSA is performed using 0.05% AALS-6 in digestion buffer. For the other surfactants, digestion is performed according to the manufacturer's protocols. Sample clean-up and MALDI spotting is performed using C18 reversed phase tips. MALDI-TOF spectra are acquired using an ABI 4800 mass spectrometer in the reflector mode. Protein identification is accomplished through peptide mass fingerprinting (PMF) of the acquired MS spectra.
Algorithms that compare mass spectrometric data to database for protein identification compare the experimental tandem mass spectra against theoretical mass spectra from all peptides and proteins present in the databases. As an output for the database correlation analysis, a protein identification score is generated for each potential protein match. Protein matches are required to have a minimum protein score to be considered a potential positive and significant protein identification. The higher the score, the more likely that the protein identification is real and not a result of random events that match the database. […]

[3] = Critical micellular concentration; type: physicochemical

SMILES	average protein score [1]	average protein score [2]	critical micellular concentration [3] [mM]
CCCCCCCCCCC(OC(=O)NCCCS(=O)(=O)[O-])c1ccco1.[Na+] (centres unmarked) [Proteamax]	329		
CCCCCCOC(C)(COS(=O)(=O)[O-])OCCCCCC.[Na+] [AALS-6, sodium 2,2-bis(hexyloxy)propyl sulfate]	487	93	7.7
CCCCCCCCCCCC1(C)OCC(COCCCS(=O)(=O)[O-])O1.[Na+] (centres unmarked) [Rapigest]	341		
